Experimental data as given in US8088815B2, “Spiroindolinone pyrrolidines” (Hoffman-La Roche Inc., priority 2009, dated 2012).

The molecules below were run against interaction between p53 and MDM2 proteins (Homo sapiens, UniProt Q00987) (assay: HTRF assay of inhibition of the p53-MDM2 interaction (GST-MDM2 / biotinylated p53 peptide)). Conditions: recombinant GST-tagged MDM2 and biotinylated p53 peptide, bsa:0.02%.
Format: binding
Method: The ability of the compounds to inhibit the interaction between p53 and MDM2 proteins was measured by an HTRF (homogeneous time-resolved fluorescence) assay in which recombinant GST-tagged MDM2 binds to a peptide that resembles the MDM2-interacting region of p53. Binding of GST-MDM2 protein and p53-peptide (biotinylated on its N-terminal end) is registered by the FRET (fluorescence resonance energy transfer) between Europium (Eu)-labeled anti-GST antibody and streptavidin-conjugated Allophycocyanin (APC).
Add 10 uL diluted compounds (1:5 dilution in reaction buffer) to each well, mix by shaking. Add 20 uL biotinylated p53 peptide (180 nM working solution) in reaction buffer to each well and mix on shaker. Incubate at 37° C. for 1 h. Add 20 uL streptavidin-APC and Eu-anti-GST antibody mixture (6 nM Eu-anti-GST and 60 nM streptavidin-APC working solution) in TBS buffer with 0.2% BSA, shake at room temperature for 30 minutes and read using a TRF-capable plate reader at
665 and 615 nm (Victor 5, Perkin ElmerWallac). If not specified, the reagents were purchased from Sigma Chemical Co.

Sequence of interaction between p53 and MDM2 proteins (Q00987 whole entry): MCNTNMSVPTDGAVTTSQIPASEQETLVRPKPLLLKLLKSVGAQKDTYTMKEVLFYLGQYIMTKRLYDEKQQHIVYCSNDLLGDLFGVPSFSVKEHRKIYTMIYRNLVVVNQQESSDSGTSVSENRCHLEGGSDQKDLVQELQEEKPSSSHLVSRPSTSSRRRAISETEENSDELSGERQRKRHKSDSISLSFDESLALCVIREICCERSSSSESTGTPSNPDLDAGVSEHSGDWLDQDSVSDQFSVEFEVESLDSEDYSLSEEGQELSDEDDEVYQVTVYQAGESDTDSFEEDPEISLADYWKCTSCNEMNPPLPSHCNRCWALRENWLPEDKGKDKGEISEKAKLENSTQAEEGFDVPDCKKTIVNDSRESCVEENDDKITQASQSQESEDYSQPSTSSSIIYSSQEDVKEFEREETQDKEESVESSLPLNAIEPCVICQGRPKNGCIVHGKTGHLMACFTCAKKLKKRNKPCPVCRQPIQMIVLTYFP

| SMILES | IC50 [nM] |
| --- | --- |
| CC(C)(C)C[C@@H]1N[C@@H](C(=O)Nc2ccc(S(C)(=O)=O)cc2F)[C@H](c2cccc(Cl)c2F)[C@]12C(=O)Nc1cc(Cl)ccc12 (racemic) [Example 37, rac-(2′S,3′R,4′S,5′R)-6-chloro-4′-(3-chloro-2-fluoro-phenyl)-2′-(2,2-dimethyl-propyl)-2-oxo-1,2-dihydro-spiro[indole-3,3′-pyrrolidine]-5′-carboxylic acid (2-fluoro-4-methanesulfonyl-phenyl)-amide] | > 10000 |
| CC(C)(C)C[C@@H]1N[C@@H](C(=O)Nc2ccn(CCO)n2)[C@H](c2cccc(Cl)c2F)[C@]12C(=O)Nc1cc(Cl)ccc12 (racemic) [Example 44, rac-(2′S,3′R,4′S,5′R)-6-chloro-4′-(3-chloro-2-fluoro-phenyl)-2′-(2,2-dimethyl-propyl)-2-oxo-1,2-dihydro-spiro[indole-3,3′-pyrrolidine]-5′-carboxylic acid [1-(2-hydroxy-ethyl)-1H-pyrazol-3-yl]-amide] | 10 |
| CC(C)(C)C[C@@H]1N[C@@H](C(=O)Nc2ccc(I)cc2F)[C@H](c2cccc(Cl)c2F)[C@]12C(=O)Nc1cc(Cl)ccc12 (racemic) [Example 51, rac-(2′S,3′R,4′S,5′R)-6-chloro-4′-(3-chloro-2-fluoro-phenyl)-2′-(2,2-dimethyl-propyl)-2-oxo-1,2-dihydro-spiro[indole-3,3′-pyrrolidine]-5′-carboxylic acid (2-fluoro-4-iodo-phenyl)-amide] | 20 |
| CC(C)(C)C[C@@H]1N[C@@H](C(=O)Nc2ccc(C(N)=O)cc2F)[C@H](c2cccc(Cl)c2F)[C@]12C(=O)Nc1cc(Cl)ccc12 (racemic) [Example 53, rac-(2′S,3′R,4′S,5′R)-6-chloro-4′-(3-chloro-2-fluoro-phenyl)-2′-(2,2-dimethyl-propyl)-2-oxo-1,2-dihydro-spiro[indole-3,3′-pyrrolidine]-5′-carboxylic acid (4-carbamoyl-2-fluoro-phenyl)-amide] | 11 |
| CC(C)(C)C[C@@H]1N[C@@H](C(=O)Nc2ccn(CC(C)(C)O)n2)[C@H](c2cccc(Cl)c2F)[C@]12C(=O)Nc1cc(Cl)ccc12 (racemic) [Example 55, rac-(2′S,3′R,4′S,5′R)-6-chloro-4′-(3-chloro-2-fluoro-phenyl)-2′-(2,2-dimethyl-propyl)-2-oxo-1,2-dihydro-spiro[indole-3,3′-pyrrolidine]-5′-carboxylic acid [1-(2-hydroxy-2-methyl-propyl)-1H-pyrazol-3-yl]-amide trifluoroacetic acid] | 13 |
| CC(C)(C)C[C@@H]1N[C@@H](C(=O)Nc2ccc(I)cc2)[C@H](c2cccc(Cl)c2F)[C@]12C(=O)Nc1cc(Cl)ccc12 (racemic) [Example 56, rac-(2′S,3′R,4′S,5′R)-6-chloro-4′-(3-chloro-2-fluoro-phenyl)-2′-(2,2-dimethyl-propyl)-2-oxo-1,2-dihydro-spiro[indole-3,3′-pyrrolidine]-5′-carboxylic acid (4-iodo-phenyl)-amide] | 19 |
| COc1cc(C#N)ccc1NC(=O)[C@@H]1N[C@@H](CC(C)(C)C)[C@@]2(C(=O)Nc3cc(Cl)ccc32)[C@H]1c1cccc(Cl)c1F (racemic) [Example 58, rac-(2′S,3′R,4′S,5′R)-6-chloro-4′-(3-chloro-2-fluoro-phenyl)-2′-(2,2-dimethyl-propyl)-2-oxo-1,2-dihydro-spiro[indole-3,3′-pyrrolidine]-5′-carboxylic acid (4-cyano-2-methoxy-phenyl)-amide] | 23 |
| COc1cc(C(N)=O)ccc1NC(=O)[C@@H]1N[C@@H](CC(C)(C)C)[C@@]2(C(=O)Nc3cc(Cl)ccc32)[C@H]1c1cccc(Cl)c1F (racemic) [Example 59, rac-(2′S,3′R,4′S,5′R)-6-chloro-4′-(3-chloro-2-fluoro-phenyl)-2′-(2,2-dimethyl-propyl)-2-oxo-1,2-dihydro-spiro[indole-3,3′-pyrrolidine]-5′-carboxylic acid (4-carbamoyl-2-methoxy-phenyl)-amide] | 14 |
| CC(C)(C)C[C@@H]1N[C@@H](C(=O)Nc2ccc(C#N)cc2)[C@H](c2cccc(Cl)c2)[C@]12C(=O)Nc1cc(Cl)ccc12 (racemic) [Example 64, rac-(2′S,3′R,4′R,5′R)-6-chloro-4′-(3-chloro-phenyl)-2′-(2,2-dimethyl-propyl)-2-oxo-1,2-dihydro-spiro[indole-3,3′-pyrrolidine]-5′-carboxylic acid (4-cyano-phenyl)-amide] | 34 |
| CC(C)(C)C[C@@H]1N[C@@H](C(=O)Nc2ccc(C(N)=O)cc2)[C@H](c2cccc(Cl)c2)[C@]12C(=O)Nc1cc(Cl)ccc12 (racemic) [Example 65A, rac-(2′S,3′R,4′R,5′R)-6-chloro-4′-(3-chloro-phenyl)-2′-(2,2-dimethyl-propyl)-2-oxo-1,2-dihydro-spiro[indole-3,3′-pyrrolidine]-5′-carboxylic acid (4-carbamoyl-phenyl)-amide] | 9 |
| COc1cc(C(N)=O)ccc1NC(=O)[C@@H]1N[C@@H](CC(C)(C)C)[C@@]2(C(=O)Nc3cc(Cl)ccc32)[C@H]1c1cccc(Cl)c1 (racemic) [Example 67, rac-(2′S,3′R,4′R,5′R)-6-chloro-4′-(3-chloro-phenyl)-2′-(2,2-dimethyl-propyl)-2-oxo-1,2-dihydro-spiro[indole-3,3′-pyrrolidine]-5′-carboxylic acid (4-carbamoyl-2-methoxy-phenyl)-amide] | 10 |
| CC(C)(C)C[C@@H]1N[C@@H](C(=O)Nc2ccc(C(N)=O)cc2)[C@H](c2cccc(Cl)c2F)[C@]12C(=O)Nc1cc(Cl)cc(F)c12 (racemic) [Example 73, rac-(2′S,3′R,4′S,5′R)-6-chloro-4′-(3-chloro-2-fluoro-phenyl)-2′-(2,2-dimethyl-propyl)-4-fluoro-2-oxo-1,2-dihydro-spiro[indole-3,3′-pyrrolidine]-5′-carboxylic acid (4-carbamoyl-phenyl)-amide] | 11 |
| COc1cc(C#N)ccc1NC(=O)[C@@H]1N[C@@H](CC(C)(C)C)[C@@]2(C(=O)Nc3cc(Cl)cc(F)c32)[C@H]1c1cccc(Cl)c1F (racemic) [Example 75, rac-(2′S,3′R,4′S,5′R)-6-chloro-4′-(3-chloro-2-fluoro-phenyl)-2′-(2,2-dimethyl-propyl)-4-fluoro-2-oxo-1,2-dihydro-spiro[indole-3,3′-pyrrolidine]-5′-carboxylic acid (4-cyano-2-methoxy-phenyl)-amide] | 20 |

The remaining molecules from weak to strong by IC50, led by results:

| IC50 [nM] | SMILES |
| --- | --- |
| 22 | CC(C)(C)C[C@@H]1N[C@@H](C(=O)Nc2ccc(C#N)cc2)[C@H](c2cccc(Cl)c2F)[C@]12C(=O)Nc1cc(Cl)cc(F)c12 (racemic) [Example 72, rac-(2′S,3′R,4′S,5′R)-6-chloro-4′-(3-chloro-2-fluoro-phenyl)-2′-(2,2-dimethyl-propyl)-4-fluoro-2-oxo-1,2-dihydro-spiro[indole-3,3′-pyrrolidine]-5′-carboxylic acid (4-cyano-phenyl)-amide] |
| 16 | CC(C)(C)C[C@@H]1N[C@@H](C(=O)Nc2ccc(C#N)cc2)[C@H](c2cccc(Cl)c2F)[C@]12C(=O)Nc1cc(Cl)c(F)cc12 (racemic) [Example 48, rac-(2′S,3′R,4′S,5′R)-6-chloro-4′-(3-chloro-2-fluoro-phenyl)-2′-(2,2-dimethyl-propyl)-5-fluoro-2-oxo-1,2-dihydro-spiro[indole-3,3′-pyrrolidine]-5′-carboxylic acid (4-cyano-phenyl)-amide] |
| 14 | CC(C)(C)C[C@@H]1N[C@@H](C(=O)Nc2ccc(C(=O)CO)cc2)[C@H](c2cccc(Cl)c2F)[C@]12C(=O)Nc1cc(Cl)ccc12 (racemic) [Example 42, rac-(2′S,3′R,4′S,5′R)-6-chloro-4′-(3-chloro-2-fluoro-phenyl)-2′-(2,2-dimethyl-propyl)-2-oxo-1,2-dihydro-spiro[indole-3,3′-pyrrolidine]-5′-carboxylic acid [4-(2-hydroxy-acetyl)-phenyl]-amide] |
| 14 | COc1cc(C#N)ccc1NC(=O)[C@@H]1N[C@@H](CC(C)(C)C)[C@@]2(C(=O)Nc3cc(Cl)ccc32)[C@H]1c1cccc(Cl)c1 (racemic) [Example 66, rac-(2′S,3′R,4′R,5′R)-6-chloro-4′-(3-chloro-phenyl)-2′-(2,2-dimethyl-propyl)-2-oxo-1,2-dihydro-spiro[indole-3,3′-pyrrolidine]-5′-carboxylic acid (4-cyano-2-methoxy-phenyl)-amide] |
| 13 | CC(C)(C)C[C@@H]1N[C@@H](C(=O)Nc2ccc(C(N)=O)cc2)[C@H](c2cccc(Cl)c2F)[C@]12C(=O)Nc1cc(Cl)c(F)cc12 (racemic) [Example 49, rac-(2′S,3′R,4′S,5′R)-6-chloro-4′-(3-chloro-2-fluoro-phenyl)-2′-(2,2-dimethyl-propyl)-5-fluoro-2-oxo-1,2-dihydro-spiro[indole-3,3′-pyrrolidine]-5′-carboxylic acid (4-carbamoyl-phenyl)-amide] |
| 12 | CC(C)(C)C[C@@H]1N[C@@H](C(=O)Nc2ccc(C#N)cc2F)[C@H](c2cccc(Cl)c2F)[C@]12C(=O)Nc1cc(Cl)ccc12 (racemic) [Example 52, rac-(2′S,3′R,4′S,5′R)-6-chloro-4′-(3-chloro-2-fluoro-phenyl)-2′-(2,2-dimethyl-propyl)-2-oxo-1,2-dihydro-spiro[indole-3,3′-pyrrolidine]-5′-carboxylic acid (4-cyano-2-fluoro-phenyl)-amide] |
